# Reference: ChEMBL document CHEMBL1136027, “Design, synthesis and structure-activity relationships of novel imidazolo[1,2-a]pyrimid-5-ones as potent GnRH receptor antagonists” (Bioorg Med Chem Lett, 2002)
# pKi: −log10 of the molar value.
# Tested on: not listed separately
# Assay: Half-life in rat plasma was determined
# Assay type: ADME, organism-based
# Settings: not given; call rule not given here
row,half-life,SMILES
1,28 min,CCC(CC)OC(=O)c1cn(Cc2ccccc2F)c2cc(-c3ccc(NC(C)=O)cc3)c(CN(C)CCc3ccccn3)n2c1=O

# Target: T1, Gonadotropin-releasing hormone receptor (Homo sapiens, UniProt P30968)
# T1 sequence (P30968 whole entry): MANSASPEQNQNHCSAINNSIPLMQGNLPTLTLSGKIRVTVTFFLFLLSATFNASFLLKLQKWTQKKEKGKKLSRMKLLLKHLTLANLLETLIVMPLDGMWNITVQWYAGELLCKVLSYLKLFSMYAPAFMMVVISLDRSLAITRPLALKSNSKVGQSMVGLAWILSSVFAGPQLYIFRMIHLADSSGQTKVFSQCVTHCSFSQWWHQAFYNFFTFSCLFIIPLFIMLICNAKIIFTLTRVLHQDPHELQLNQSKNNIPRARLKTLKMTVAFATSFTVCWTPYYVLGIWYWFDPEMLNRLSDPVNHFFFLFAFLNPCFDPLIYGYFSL
# Assay: Binding evaluated in cloned human Gonadotropin-releasing hormone receptor by displacement of [125 I-Tyr, DLeu, NMeLeu, Pro-NEt]GnRH agonist
# Settings: not given
row,Ki,SMILES
1,Not Active,COc1ccc(-c2nc3n(Cc4ccccc4F)c(C)c(-c4ccc5c(c4)OCO5)c(=O)n3c2CN(C)C2CCN(C)CC2)cc1

# Same assay, conditions: read-out: Ki
row,pKi,SMILES
1,7.19,COc1ccc(-c2nc3n(Cc4ccccc4F)c(C)c(-c4ccccc4OC)c(=O)n3c2CN(C)CCc2ccccn2)cc1
2,6.96,COc1ccc(-c2nc3n(Cc4ccccc4F)c(C)c(-c4ccc(OC)c(OC)c4)c(=O)n3c2CN(C)CCc2ccccn2)cc1
3,6.89,CCN(CC)CCN(C)Cc1c(-c2ccc(OC)cc2)nc2n(Cc3ccccc3F)c(C)c(-c3ccc4c(c3)OCO4)c(=O)n12
4,6.64,CCC(CC)OC(=O)c1cn(Cc2ccccc2F)c2nc(-c3ccc(OC)cc3)c(CN(C)CCc3ccccn3)n2c1=O
5,5.85,COc1ccc(-c2nc3n(Cc4ccccc4F)c(C)c(-c4ccc5c(c4)OCO5)c(=O)n3c2CN(C)CCc2ccncc2)cc1
6,7.00,COc1ccc(-c2nc3n(Cc4ccccc4F)c(C)c(-c4cc(Cl)cc(Cl)c4)c(=O)n3c2CN(C)CCc2ccccn2)cc1
7,7.10,COc1ccc(-c2nc3n(Cc4ccccc4F)c(C)c(-c4cccc(F)c4)c(=O)n3c2CN(C)CCc2ccccn2)cc1
8,5.02,COc1ccc(-c2nc3n(Cc4ccccc4F)c(C)c(-c4ccc5c(c4)OCO5)c(=O)n3c2CN2CCCN(C)CC2)cc1
9,4.55,COc1ccc(-c2nc3n(Cc4ccccc4F)c(C)c(-c4ccc5c(c4)OCO5)c(=O)n3c2CN2CCOCC2)cc1
10,6.85,COc1ccc(-c2nc3n(Cc4ccccc4F)c(C)c(-c4cccc(C(F)(F)F)c4)c(=O)n3c2CN(C)CCc2ccccn2)cc1
11,6.96,COc1ccc(-c2nc3n(Cc4ccccc4F)c(C)c(-c4ccc5c(c4)OCO5)c(=O)n3c2CN(C)CCc2ccccc2)cc1
12,6.43,COc1ccc(-c2nc3n(Cc4ccccc4F)c(C)c(-c4cc(OC)c(OC)c(OC)c4)c(=O)n3c2CN(C)CCc2ccccn2)cc1
13,7.25,COc1ccc(-c2nc3n(Cc4ccccc4F)c(C)c(-c4cccc(S)c4)c(=O)n3c2CN(C)CCc2ccccn2)cc1
14,7.17,COc1ccc(-c2nc3n(Cc4ccccc4F)c(C)c(-c4ccc5c(c4)OCO5)c(=O)n3c2CN(C)CCc2ccccc2F)cc1
15,8.34,COc1ccc(-c2nc3n(Cc4ccccc4F)c(C)c(-c4cccc(OC)c4)c(=O)n3c2CN(C)CCc2ccccn2)cc1
16,7.33,COc1ccc(-c2nc3n(Cc4ccccc4F)c(C)c(-c4ccc5c(c4)OCO5)c(=O)n3c2CN(C)Cc2ccccc2)cc1
17,7.74,COc1ccc(-c2nc3n(Cc4ccccc4F)c(C)c(-c4ccc(OC)cc4)c(=O)n3c2CN(C)CCc2ccccn2)cc1
18,6.66,CCCCN(C)Cc1c(-c2ccc(OC)cc2)nc2n(Cc3ccccc3F)c(C)c(-c3ccc4c(c3)OCO4)c(=O)n12
19,6.82,COCCN(C)Cc1c(-c2ccc(OC)cc2)nc2n(Cc3ccccc3F)c(C)c(-c3ccc4c(c3)OCO4)c(=O)n12
20,5.60,COc1ccc(-c2nc3n(Cc4ccccc4F)c(C)c(Br)c(=O)n3c2CN(C)CCc2ccccn2)cc1
21,7.96,COc1ccc(-c2nc3n(Cc4ccccc4F)c(C)c(-c4ccc5c(c4)OCO5)c(=O)n3c2CN(C)CCc2ccccn2)cc1
